Experimental data from patent US20080076703A1, “Compositions and methods for the enhanced uptake of therapeutic agents through the bladder epithelium” (Cell Genesys, Inc., priority 2003, published 2008).

Tests used:
[1] = test system: murine bladders; experiment: Oregon Green 488 Paclitaxel uptake in bladder after intravesical instillation (fluorescence microscopy of bladder sections); format: in vivo, Balb/c mice; conditions: DDM pretreatment 5 min; Oregon Green 488 Paclitaxel 5 μg instilled, retained 15 min
Procedure: (§1) Female Balb/c mice were used due to the ease of urethral cannulation and intravesical instillation. All animals were housed according to institutional regulations for experimental animals. Balb/c mice (20 gm body weight) were anesthetized with Isoflurane, and a 24-gauge catheter was introduced through the urethra into the bladder. The residual urine was emptied and the bladder was flushed three times with 100 μL of PBS employing a 25-gauge needle inserted into the external end of the catheter. […]
(§2) 70 μL of the solution was intravesically instilled in the bladder and retained for 15 min after which the bladder was washed 3 times with 100 μL each of PBS. […] Triplicate samples were adjusted to 2.00 mL with 0.2 M carbonate buffer (pH=9.34) and spectrophotometric emission was measured at 538 nm following excitation at 485 nm. […]
On examination of the histological sections of the bladder that had been pretreated with PBS followed by the intravesical retention of Paclitaxel, it was observed that there were very small patchy areas of non-specifically bound drug on the luminal surface of the bladder (FIGS. 1A-1C). Most of the bladder surface was devoid of any fluorescence that indicated the absence of any entry of the drug into the bladder tissue. […]

[2] = test system: bladder tissue; conditions: after DDM pretreatment; cited from earlier work
[3] = test system: urothelium (GAG layer, tight junctions); experiment: Electron Microscopy of the DDM pretreated bladder; format: in vivo
[4] = test system: Mouse bladders; experiment: Systemic uptake of intravesically instilled sodium fluorescein (serum fluorescence); format: in vivo, Balb/c mice; conditions: 0.1% DDM pretreatment 5 min, 0.1% sodium fluorescein instilled, retained 15 min
Procedure: as §1, §2
Fluorescein has been used to measure alterations in bladder permeability after bladder mucosal injury in mice [Eichel, L. et al., (2001) Urology. […] Following 3× wash of the bladder with PBS, blood was removed from the mice via cardiac puncture and the serum was analyzed for systemic distribution of intravesically instilled sodium fluorescein as described above. […]

[5] = test system: murine bladders; experiment: FITC-LC-TAT peptide uptake in bladder after intravesical instillation (fluorescence microscopy of bladder sections); format: in vivo, Balb/c mice; conditions: 0.1% DDM pretreatment; 5 μg FITC-LC-TAT instilled, retained 15 min
Procedure: as §1, with “catheter. After washing, bladder pretreatment was performed employing the various test reagents as follows: the pretreatment reagent (DDM) was diluted to the desired concentration in PBS, and the bladder was quickly rinsed twice with 100 μL each of the reagent. After the rinsing steps, 100 μL of the pretreatment reagent was introduced via the catheter and retained in the bladder for 5 minutes, followed by an additional quick rinse with the pretreatment reagent. The bladder was then washed three times with 100 μL each of PBS.” for “catheter.”
as §2

SMILES: CCCCCCCCCCCCO[C@@H]1O[C@H](CO)[C@@H](O[C@H]2O[C@H](CO)[C@@H](O)[C@H](O)[C@H]2O)[C@H](O)[C@H]1O [DDM, n-dodecyl-β-D-maltoside]
- uptake of Paclitaxel into bladder tissue (fluorescence) [1]: significant uptake
- penetration of adenovirus particles (70 nm to 100 nm) into bladder tissue [2]: able to penetrate the bladder tissue
- GAG layer on the urothelium (electron microscopy) [3]: absent
- tight junctions along the surface (electron microscopy) [3]: Disruption of tight junctions
- increase in the circulating levels of fluorescein as compared to PBS pretreatment [4]: 5-10 ×
- FITC-LC-TAT fluorescent signal in epithelial layer on luminal surface of bladder [5]: distinct signal
